System: cephalosporin C amidase
Assay: Conversion of desacetoxycephalosporin C to 7-ADCA by cephalosporin C amidase
Assay type: biochemical, Arthrobacter viscosus ATCC 53594
Experimental: As already described above, desacetoxycephalosporin C (DOAC) may be converted to 7-aminodesacetoxycephalosporanic acid (7-ADCA) using the enzyme and method of the present invention. This conversion may be illustrated as follows: [drawing 10] Cephalosporin C amidase, prepared as described above in Example 1, was incubated with 2 mg/ml DAOC for 3 hrs at 37° C. The reaction mixture required a pre-chromatography separation step using XAD-16® (Rohm and Haas) macroreticular water insoluble cross linked adsorbent polymer to remove coeluting contaminants. Chromatography was carried out in accordance with the procedures described above in Example 1 (except that the mobile phase consisted of 1 liter deionized water, 1.88 g hexyl sodium sulfonate, 2.025 ml phosphoric acid, and 25 ml acetonitrile, pH 2.75), and established that approximately 0.5 to 1.0% of the original DOAC substrate had been converted to 7-ADCA.

## CC1=C(C(=O)O)N2C(=O)C(NC(=O)CCCC(N)C(=O)O)C2SC1 (stereo not shown) [DOAC, desacetoxycephalosporin C]
  extent of conversion to 7-ADCA compared with conversion of cephalosporin C to 7-ACA: essentially equivalent to the conversion of cephalosporin C to 7-aminocephalosporanic acid

— patent US4981789A, “One-step enzymatic conversion of cephalosporin C and derivatives to 7-aminocephalosporanic acid and derivatives” (priority 1987, dated 1991)
